Reference: US9238039B2, “Pyrazolo[1,5-A]pyrimidines for antiviral treatment” (Gilead Sciences, Inc., priority 2010, dated 2016)

Test system: RSV strain A2
Test: RSV antiviral cytoprotection assay in Hep2 cells (96-well and 384-well format, Cell TiterGlo read-out)
Assay type: cell-based, Respiratory Syncytial Virus (RSV)
Details: for inhibition at 0.5 µM: HEp-2, 0.5 uM; for inhibition at 0.5 µM / inhibition at 1 µM: RSV-induced cytopathic effect in Hep2 cells, calculated from fitted dose response curve, normalized to 0% and 100%; for EC50: Hep2 cells, class symbols; for inhibition at 1 µM: HEp-2, 1 uM
[1] = human respiratory syncytial virus
[2] = human respiratory syncytial virus, HEp-2, RSV-induced cytopathic effects

Row | EC50 [2] [nM] | EC50 (RSV-induced cytopathic effects) [nM] | SMILES | inhibition at 0.5 µM [1] [%] | inhibition at 1 µM [1] [%]
1 | 0.1 to 100 | – | CNC(=O)c1cc(C(=O)N2CCCC[C@H]2c2cc3nc(N4CC[C@H](N)C4)c(C)cn3n2)n(C)n1 [Compound 371] | 100 | –
2 | 0.1 to 100 | – | Cc1cn2nc([C@@H]3CCCCN3C(=O)c3cc(Cl)ccc3NS(C)(=O)=O)cc2nc1N1CC(N)C(F)C1 (stereo partly shown) [Compound 250] | 90 | –
3 | 0.1 to 100 | – | COCc1ccc(C(=O)N2CCCC[C@H]2c2cc3nc(N4CC[C@H](N)C4)c(C)cn3n2)cc1 [Compound 321] | 100 | –
4 | 0.1 to 100 | – | CS(=O)(=O)Nc1ccc(Cl)cc1C(=O)N1CCCC[C@H]1c1cc2nc(N3CCC3)cc(N3CC4(COC4)C3)n2n1 [Compound 75] | 100 | –
5 | 101 to 1000 | – | Cc1cn2nc([C@@H]3CCCCN3C(=O)c3cc(Cl)ccc3NS(C)(=O)=O)cc2nc1N1CCC[C@H]1CO [Compound 210] | 81 | –
6 | 0.1 to 100 | – | COc1cccc(C(=O)N2CCCC[C@H]2c2cc3nc(N4CC[C@H](N)C4)c(C)cn3n2)c1 [Compound 295] | 97 | –
7 | 0.1 to 100 | – | COc1c(C)cccc1C(=O)N1CCCC[C@H]1c1cc2nc(N3CC[C@H](N)C3)c(C)cn2n1 [Compound 320] | 100 | –
8 | – | 101 to 1000 | Cc1ccc(NS(C)(=O)=O)c(C(=O)N2CCCC(C)C2c2cc3[nH]c(C)c(C)c(=O)n3n2)c1 (stereo not shown) [Compound 30] | 99 | –
9 | 0.1 to 100 | – | Cc1cn2nc([C@@H]3CCCCN3C(=O)c3ccsc3)cc2nc1N1CC[C@H](N)C1 [Compound 267] | 99 | –
10 | 101 to 1000 | – | Cc1cn2nc([C@@H]3CCCCN3C(=O)c3ccc4cccnc4c3)cc2nc1N1CC[C@H](N)C1 [Compound 343] | 60 | –
11 | 0.1 to 100 | – | COC(=O)Nc1ccc(Cl)cc1C(=O)N1CCCC[C@H]1c1cc2nc(N3CC[C@H](N)C3)c(C)cn2n1 [Compound 220] | 100 | –
12 | 101 to 1000 | – | Cc1cn2nc([C@@H]3CCCCN3C(=O)c3ccc(-c4cccnc4)cc3)cc2nc1N1CC[C@H](N)C1 [Compound 408] | 59 | –
13 | 0.1 to 100 | – | Cc1ccc(NS(C)(=O)=O)c(C(=O)N2CCCC[C@H]2c2cc3nc(C)c(C)c(-c4ccccc4)n3n2)c1 [Compound 86] | 99 | –
14 | 101 to 1000 | – | Cc1ccc(NS(C)(=O)=O)c(C(=O)N2CCC(C(F)(F)F)CC2c2cc3[nH]c(C)c(C)c(=O)n3n2)c1 (stereo not shown) [Compound 251] | 73 | –
15 | 0.1 to 100 | – | Cc1cn2nc([C@@H]3CCCCN3C(=O)c3cc(Cl)ccc3NS(C)(=O)=O)cc2nc1N1CC(OC(=O)[C@@H]2CCCN2)C1 [Compound 171] | 100 | –
16 | 0.1 to 100 | – | CS(=O)(=O)Nc1ccc(Cl)cc1C(=O)N1CCCC[C@H]1c1cc2nc(N3CC[C@@H](C#N)C3)cc(N3CCOCC3)n2n1 [Compound 228] | 100 | –
17 | 1000 to 10000 | – | Cc1cn2nc([C@@H]3CCCCN3C(=O)c3cnco3)cc2nc1N1CC[C@H](N)C1 [Compound 259] | 28 | –
18 | 1000 to 10000 | – | Cc1ccc(C(=O)N2CCCC[C@H]2c2cc3nc(N4CC[C@H](N)C4)c(C)cn3n2)cc1O [Compound 294] | 14 | –
19 | 0.1 to 100 | – | Cc1cn2nc([C@@H]3CCCCN3C(=O)c3cc(Cl)ccc3NS(C)(=O)=O)cc2nc1N1CCC(C#N)CC1 [Compound 215] | 99 | –
20 | 0.1 to 100 | – | Cc1[nH]c2cc([C@@H]3C[C@@H](C)CCN3C(=O)c3cc(F)ccc3NS(C)(=O)=O)nn2c(=O)c1C [Compound 22] | 95 | 99
21 | 0.1 to 100 | – | Cc1cn2nc([C@@H]3CCCCN3C(=O)c3cccc(Cl)c3C)cc2nc1N1CC[C@H](N)C1 [Compound 331] | 99 | –
22 | 101 to 1000 | – | Cc1ccc(C(=O)N2CCCC[C@H]2c2cc3nc(N4CC[C@H](N)C4)c(C)cn3n2)c(O)c1 [Compound 293] | 64 | –
23 | 0.1 to 100 | – | COc1cccc(C(=O)N2CCCC[C@H]2c2cc3nc(N4CC[C@H](N)C4)c(C)cn3n2)c1Cl [Compound 377] | 99 | –
24 | 0.1 to 100 | – | Cc1cn2nc([C@@H]3CCCCN3C(=O)c3cc(Cl)ccc3NS(C)(=O)=O)cc2nc1N1CC[C@@H](CN)C1 [Compound 151] | 99 | –

Row | EC50 [2] [nM] | EC50 (RSV-induced cytopathic effects) [nM] | SMILES | inhibition at 0.5 µM [1] [%] | inhibition at 1 µM [1] [%]
25 | 0.1 to 100 | – | CS(=O)(=O)Nc1ccc(Cl)cc1C(=O)N1CCCC[C@H]1c1cc2nc(N3CCC3)cc(CO)n2n1 [Compound 254] | 90 | –
26 | 0.1 to 100 | – | Cc1cn2nc([C@@H]3CCCCN3C(=O)c3ccccc3-c3ccccc3)cc2nc1N1CC[C@H](N)C1 [Compound 407] | 92 | –
27 | 0.1 to 100 | – | Cc1ccc(N2CCCS2(=O)=O)c(C(=O)N2CCCC[C@H]2c2cc3nc(C4CC4)cc(C)n3n2)c1 [Compound 113] | 100 | –
28 | 0.1 to 100 | – | Cc1cn2nc([C@@H]3CCCCN3C(=O)c3cc(Cl)ccc3NS(C)(=O)=O)cc2nc1N1CC[C@@H](CO)C1 [Compound 198] | 95 | –
29 | 0.1 to 100 | – | Cc1cn2nc([C@@H]3CCCCN3C(=O)c3cc4ncccn4n3)cc2nc1N1CC[C@H](N)C1 [Compound 315] | 100 | –
30 | 0.1 to 100 | – | CS(=O)(=O)Nc1ccc(Cl)cc1C(=O)N1CCCC[C@H]1c1cc2nc(N3CC[C@@H](O)C3)cc(N3CCOCC3)n2n1 [Compound 71] | 95 | –
31 | 0.1 to 100 | – | Cc1cc(C2CC2)nc2cc([C@@H]3CCCCN3C(=O)c3cc(F)cc(Br)c3NS(C)(=O)=O)nn12 [Compound 121] | 97 | –
32 | 0.1 to 100 | – | CCc1cc(C(=O)N2CCCC[C@H]2c2cc3nc(N4CC[C@H](N)C4)c(C)cn3n2)n(C)n1 [Compound 303] | 100 | –
33 | 0.1 to 100 | – | COc1cc(Cl)cc(C(=O)N2CCCC[C@H]2c2cc3nc(N4CC[C@H](N)C4)c(C)cn3n2)c1 [Compound 376] | 100 | –
34 | 0.1 to 100 | – | Cc1cn2nc([C@@H]3CCCCN3C(=O)c3cccc4nnnn34)cc2nc1N1CC[C@H](N)C1 [Compound 316] | 100 | –
35 | 101 to 1000 | – | Cc1cn2nc([C@@H]3CCCCN3C(=O)c3cncnc3N)cc2nc1N1CC[C@H](N)C1 [Compound 276] | 90 | –
36 | 0.1 to 100 | – | Cc1ccc(NS(C)(=O)=O)c(C(=O)N2CCCC[C@H]2c2cc3nc(C)c(C)c(N(C)C)n3n2)c1 [Compound 101] | 100 | –
37 | 0.1 to 100 | – | Cc1cn2nc([C@@H]3CCCCN3C(=O)c3cn(C)nc3C(F)(F)F)cc2nc1N1CC[C@H](N)C1 [Compound 402] | 99 | –
38 | 101 to 1000 | – | Cc1cn2nc([C@@H]3CCCCN3C(=O)c3ccc(C(N)=O)s3)cc2nc1N1CC[C@H](N)C1 [Compound 336] | 78 | –
39 | 0.1 to 100 | – | Cc1ccc(NS(C)(=O)=O)c(C(=O)N2CCCC[C@H]2c2cc3nc(C)c(C)c(NC4CC4)n3n2)c1 [Compound 102] | 98 | –
40 | 0.1 to 100 | – | Cc1cn2nc([C@@H]3CCCCN3C(=O)c3ccc(-c4ccccc4)cc3)cc2nc1N1CC[C@H](N)C1 [Compound 406] | 98 | –
41 | 0.1 to 100 | – | Cc1[nH]c2cc([C@@H]3CCCCN3C(=O)c3cc(F)cc(Cl)c3NS(C)(=O)=O)nn2c(=O)c1C [Compound 127] | 99 | –
42 | 0.1 to 100 | – | Cc1cn2nc([C@@H]3CCCCN3C(=O)c3cc(Cl)ccc3NS(C)(=O)=O)cc2nc1N1CCCCN1 [Compound 141] | 95 | –
43 | 0.1 to 100 | – | Cc1cn2nc([C@@H]3CCCCN3C(=O)c3cc4cccnc4s3)cc2nc1N1CC[C@H](N)C1 [Compound 362] | 100 | –
44 | 0.1 to 100 | – | CS(=O)(=O)Nc1ccc(Cl)cc1C(=O)N1CCCC[C@H]1c1cc2nc(N3CC(O)C3)cc(N3CCNCC3)n2n1 [Compound 50] | 100 | –
45 | 101 to 1000 | – | Cc1[nH]c2cc([C@@H]3CCCCN3C(=O)c3ccccc3NS(=O)(=O)N3CCOCC3)nn2c(=O)c1C [Compound 15] | 30 | 42
46 | 0.1 to 100 | – | Cc1cn2nc([C@@H]3CCCCN3C(=O)c3ccc4c(c3)nnn4C)cc2nc1N1CC[C@H](N)C1 [Compound 359] | 100 | –
47 | 0.1 to 100 | – | Cc1cc(N(C)C)nc2cc([C@@H]3CCCCN3C(=O)c3cc(Cl)ccc3NS(C)(=O)=O)nn12 [Compound 41] | 95 | –

Row | SMILES | EC50 [2] [nM] | EC50 (RSV-induced cytopathic effects) [nM] | inhibition at 0.5 µM [1] [%] | inhibition at 1 µM [1] [%]
48 | Cc1cn2nc([C@@H]3CCCCN3C(=O)c3cc(Cl)ccc3NS(C)(=O)=O)cc2nc1N1CC(CO)C1 [Compound 213] | 0.1 to 100 | – | 99 | –
49 | CN1CCN(c2cc(N3CCC3)nc3cc([C@@H]4CCCCN4C(=O)c4cc(Cl)ccc4NS(C)(=O)=O)nn23)CC1 [Compound 165] | 0.1 to 100 | – | 100 | –
50 | CS(=O)(=O)Nc1ccc(Cl)cc1C(=O)N1CCCC[C@H]1c1cc2nc(N3CC[C@@H](O)C3)cc(N3CC(N)C3)n2n1 [Compound 132] | 0.1 to 100 | – | 97 | –
51 | Cc1cn2nc([C@@H]3CCCCN3C(=O)c3cc(Cl)ccc3NS(C)(=O)=O)cc2nc1N1CCC(Oc2ccccc2)C1 (stereo partly shown) [Compound 208] | 0.1 to 100 | – | 95 | –
52 | CS(=O)(=O)Nc1ccc(Cl)cc1C(=O)N1CCCC[C@H]1c1cc2nc(N3CCC3)cc(N3CCSC3)n2n1 [Compound 106] | 0.1 to 100 | – | 100 | –
53 | CS(=O)(=O)Nc1ccc(Cl)cc1C(=O)N1CCCC[C@H]1c1cc2nc(N3CC(O)C3)cc(N3CCC(O)CC3)n2n1 [Compound 81] | 0.1 to 100 | – | 100 | –
54 | C[C@H]1CC[C@@H](c2cc3nc(N4CCC4)cc(N4CCOCC4)n3n2)N(C(=O)c2cc(Cl)ccc2NS(C)(=O)=O)C1 [Compound 143] | 0.1 to 100 | – | 100 | –
55 | CS(=O)(=O)Nc1ccc(Cl)cc1C(=O)N1CCCC[C@H]1c1cc2nc(N3CC(O)C3)cc(N3CC(N)C3)n2n1 [Compound 130] | 0.1 to 100 | – | 100 | –
